Source: publication PMC12000433 (Scientific Reports, 2025)

What was measured:
[1] = test system: β1i/LMP2, β5i/LMP7 and β2i/PSMB10 in SK-N-MC^A*02:01 and other EwS cell lines; assay: Western blot of immunoproteasome subunits in EwS cell lines; assay type: cell-based, human; details: IFN-γ 100U/ml, 24 h
[2] = test system: MHC class I on EwS cell lines; assay: flow cytometry of MHC class I on EwS cell lines; assay type: cell-based, human; details: IFN-γ 100U/ml, 24 h; W6/32 and BB7.2 mAbs

Substance: IFN-γ: inflammatory cytokine used to treat EwS cell lines and tumors
- immunoproteasome subunit expression [1]: induced de novo expression of immunoproteasome subunits
- MHC class I expression [2]: induced MHC class I upregulation
